Experimental findings from patent US6783558B2, “Hair coloring method and composition” (Kao Corporation, priority 2001, dated 2004) are described below.

Data set [1] in a line: Measurement of pKa value by spectrophotometric titration. Format: physicochemical. The conditions noted are these: DMF/water (1/1) solution, 2×10^−5 mol/l, titrated from pH 2 with NaOH, visible ultra-violet absorption spectrum, read-out: pKa value determined. As for the experimental part:
The dissociative dye represents the dye that can release a proton and be anionic above a certain pH value. The pKa value can be determined by the following method: The sample is dissolved in a solution of a DMF/water (1/1) volume ratio to a final concentration of 2×10^−5 mol/l. After the resulting solution is adjusted to pH 2, using 1.0 mol/l hydrochloric acid, the solution is titrated with aqueous 1.0 mol/l sodium hydroxide solution. Recording the change of the visible ultra-violet absorption spectrum, the inflection point is determined by regression analysis.
pKa values of the dyestuffs DS-3 to DS-6, DS-7 and DS10 were determined by the following method: The dye was dissolved in a solution of a DMF/water (1/1) volume ratio to a final concentration of 2×10^−5 mol/l. After the resulting solution was adjusted to pH 2, using 1.0 mol/l hydrochloric acid, the solution was titrated with aqueous 1.0 mol/l sodium hydroxide solution. Recording the change of the visible ultra-violet absorption spectrum, the inflection point was determined by regression analysis.

The nature of data set [2]: Dyeing of undamaged white goat tress with general composition, Examples 7-15. The conditions noted are these: 0.02 g dyestuff in 10 g general composition (Table 6), 20 mins at 50° C. As for the experimental part:
the following general composition was prepared for each of pyrazolotriazole direct dyes DS-3, DS-4, DS-6, DS-7 and DS-12 to DS-16. Each composition was applied to one undamaged white goat tress for 20 mins at 50° C. (1 g of tress was covered by 1.5 to 2 g of composition). After 20 mins the tresses were rinsed, shampoo washed and then dried before the colour was assessed.

A short description of data set [3]: Compatibility with hydrogen peroxide, Examples 18-21. The conditions noted are these: for Delta a (change in red colour): 0.02 g dyestuff in 10 g, undamaged human blond hair, 20 mins at 50° C; for stability to alkaline peroxide: composition with ammonia and hydrogen peroxide. Further details: species or system human. The protocol:
The following general compositions in Table 10 were prepared for each of pyrazolotriazole direct dyes DS-4 and DS-6.
Each composition was applied to one undamaged human blond hair for 20 mins at 50° C. After 20 mins the tresses were rinsed, shampoo washed and then dried before the colour was assessed.

Structures are written as SMILES.

A word on the pKa: it is the pH at which an ionisable group is half protonated. On to `CC1=Nn2nc(C)nc2/C1=N\c1cc(Cl)c(O)c(Cl)c1` [DS-3], for which the pKa in data set [1] was 3.78. In data set [2], the “Colouring Result” value is on record as “Bright, intense magenta”; the “Delta E” value was 81; the L came to 30; the a was determined as 54. In data set [2], this compound returned a b of −12.

With `Cc1nc2n(n1)N=C(C(C)(C)C)/C2=N/c1cc(Cl)c(O)c(Cl)c1` [DS-4], the pKa in data set [1] is 3.88. In addition, in data set [2], the “Colouring Result” value is listed as “Bright, intense magenta”; the “Delta E” value is recorded as 75; the L was 38; the a worked out at 60. In data set [2], the b was 16. Moreover, the “Delta a (change in red colour)” value in data set [3] (H2O2 3 wt %) is 39. In addition, in data set [3] (H2O2 None), the “Delta a (change in red colour)” value is 27. Also, in data set [3], the “stability to alkaline peroxide” value is on record as “stable to alkaline peroxide”.

Consider `CC1=Nn2c(C)nnc2/C1=N\c1cc(Cl)c(O)c(Cl)c1` [DS-5], for which the pKa in data set [1] was 4.34.

As for `Cc1nnc2n1N=C(C(C)(C)C)/C2=N/c1cc(Cl)c(O)c(Cl)c1` [DS-6], in data set [2], the “Colouring Result” value is reported as “Bright pink”, the “Delta E” value came out at 55, the L amounted to 57 and the a is 42. This compound showed a b in data set [2] of −7. Besides, in data set [3] (H2O2 3 wt %), the “Delta a (change in red colour)” value is given as 30. Moreover, the “Delta a (change in red colour)” value in data set [3] (H2O2 None) amounted to 15. The “stability to alkaline peroxide” value in data set [3] was “stable to alkaline peroxide”.

Take `CC(C)c1nc2n(n1)N=C(C(C)(C)C)/C2=N/c1cc(Cl)c(O)c(Cl)c1` [DS-7]: the pKa in data set [1] was found to be 3.92. Besides, in data set [2], the “Colouring Result” value is given as “Pink”, the “Delta E” value is listed as 60, the L is listed as 50 and the a was found to be 50. The same compound had a b in data set [2] of −8.

For the compound `CC1=Nn2nc(C(C)CN)nc2/C1=N\c1cc(Cl)c(O)c(Cl)c1` (stereo not shown) [DS-10], the pKa in data set [1] stood at 3.38.

Regarding `CSc1nnc2n1N=C(c1ccccc1)/C2=N/c1cc(Cl)c(O)c(Cl)c1` [DS-12], in data set [2], the “Colouring Result” value was “Violet”, the “Delta E” value was 59, the L is 48 and the a is recorded as 29. Besides, the b in data set [2] was −26.

As to `CC(C)c1nc2n(n1)N=C(c1ccccc1Cl)/C2=N/c1cc(Cl)c(O)c(Cl)c1` [DS-15], in data set [2], the “Colouring Result” value is on record as “Violet”, the “Delta E” value was 55, the L turned out to be 51 and the a is on record as 33. The compound further had a b in data set [2] of −17.

In the case of `CC(C)(C)C1=Nn2nc(-c3ccc(NS(C)(=O)=O)cc3)nc2/C1=N\c1cc(Cl)c(O)c(Cl)c1` [DS-16], in data set [2], the “Colouring Result” value was “Bright pink”, the “Delta E” value was determined as 52, the L worked out at 55 and the a is on record as 41. This compound had a b in data set [2] of −3.
